In patent publication US12258360B2, “Compositions and methods for treatment of anticancer-drug resistant cancers” (THE GEORGE WASHINGTON UNIVERSITY, priority 2020, dated 2025):

Assays:
And-1 polymerization = biological target: T1, And-1 polymerization (Homo sapiens, UniProt O75717); test: FLAG-And-1 / HA-And-1 co-immunoprecipitation in U2OS cells; assay type: cell-based
T1 construct: expressed in transfected cells; host or cells: U2OS
T1 sequence (O75717 1-1129): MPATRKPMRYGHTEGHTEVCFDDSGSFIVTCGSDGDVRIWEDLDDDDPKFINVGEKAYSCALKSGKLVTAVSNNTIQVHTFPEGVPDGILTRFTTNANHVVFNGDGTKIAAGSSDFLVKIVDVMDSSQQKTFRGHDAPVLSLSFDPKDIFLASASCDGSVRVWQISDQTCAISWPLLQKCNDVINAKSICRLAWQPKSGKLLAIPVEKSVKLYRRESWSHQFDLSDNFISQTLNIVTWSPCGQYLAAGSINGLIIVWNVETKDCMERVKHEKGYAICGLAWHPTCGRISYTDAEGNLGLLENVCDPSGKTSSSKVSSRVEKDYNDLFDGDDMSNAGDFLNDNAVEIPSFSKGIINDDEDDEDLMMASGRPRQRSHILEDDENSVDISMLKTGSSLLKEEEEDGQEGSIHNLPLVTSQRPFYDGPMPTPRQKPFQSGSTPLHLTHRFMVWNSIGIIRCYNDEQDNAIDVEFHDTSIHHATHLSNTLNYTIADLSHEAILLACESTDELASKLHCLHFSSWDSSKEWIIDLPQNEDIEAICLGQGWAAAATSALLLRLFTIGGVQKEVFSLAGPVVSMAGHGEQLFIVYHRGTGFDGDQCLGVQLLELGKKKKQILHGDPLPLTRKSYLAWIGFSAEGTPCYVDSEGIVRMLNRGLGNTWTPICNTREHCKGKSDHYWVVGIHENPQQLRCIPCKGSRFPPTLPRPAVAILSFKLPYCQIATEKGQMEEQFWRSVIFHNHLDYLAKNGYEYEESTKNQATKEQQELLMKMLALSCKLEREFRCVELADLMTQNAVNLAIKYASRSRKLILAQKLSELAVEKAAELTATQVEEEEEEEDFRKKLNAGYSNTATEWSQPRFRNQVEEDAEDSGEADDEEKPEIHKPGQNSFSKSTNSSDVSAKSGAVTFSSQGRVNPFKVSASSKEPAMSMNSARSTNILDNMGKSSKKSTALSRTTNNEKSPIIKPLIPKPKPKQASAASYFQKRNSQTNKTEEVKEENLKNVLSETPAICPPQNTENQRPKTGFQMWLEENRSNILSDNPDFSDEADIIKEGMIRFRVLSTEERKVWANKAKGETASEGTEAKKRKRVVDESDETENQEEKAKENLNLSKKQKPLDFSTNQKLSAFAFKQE
From the text: Human And-1 exists as a homotrimer mediated by the SepB domain. To determine whether the interaction of CH3 with the WD40 domain can disrupt And-1 polymerization, resulting in exposure of CUL4B binding site on And-1 to CUL4B, both FLAG-And-1 and HA-And-1 were transfected into U2OS cells and the protein-protein interaction was examined in the presence of CH3.

MCF7 xenograft = assay type: in vivo, mice
Method: (§1) To evaluate the potency of And-1 inhibitors in vivo, IGROV1 or MCF7 cells were subcutaneously implanted into nude mice to form ovarian or breast tumors, respectively. In brief, 5-6 week-old female BALB/c athymic nude mice (CByJ.Cg-Foxn1nu/J, weighting 20-25 grams) were inoculated subcutaneously by injecting the OC cells, cisplatin resistant OC cells or breast cancer cells suspended in 100 μl ice-cold Matrigel/PBS (1:1, V:V; 5×10^6/mouse) into the dorsal flank of each mouse. When the average tumor volume reached 100-150 mm^3, the mice were randomized into subsequent experiment groups. For tumors treated with CH3 only, CH3 was given at 0 mg/kg, 20 mg/kg and 40 mg/kg via intraperitoneal injection twice a week for three weeks. […] The relative tumor volumes were calculated using the formula: a×(b^2)/2, for which a and b represented the longest and shortest diameters, respectively. During the drug treatment, the tumor volume and body weight were measured. Tumor samples were collected 4 days after final administration of the drug.

IGROV1 CR cells = test: SRB cell viability, synergy with cisplatin (combination index); assay type: cell-based, human
Method: Given that And-1 phosphorylation was positively correlated with cisplatin resistance in OC according the Examples above, it was next determined whether And-1 phosphorylation contributes to cell survival in response to cisplatin. The cell viability to cisplatin in IGROV1, OV90 and mice ID80 cells overexpressed with FLAG-And-1-WT, FLAG-And-1-T826A and phosphomimetic FLAG-And-1-T826E was examined. In brief, cells were seeded in 96-well plate at a density of 3,000-5,000 cells per well and treated with indicated reagents for different concentration. Three days after treatment, the cell viability was measured by Sulforhodamine B (SRB) assay. The IC50 values and CI index were further determined by compusyn software. Every experiment was done in triplicate and repeated three times. […] To confirm And-1 was the primary target of ATR to promote platinum-resistance, the sensitivity of IGROV1 cells to cisplatin was examined using genetic analyses.
To determine whether And-1 inhibitors can overcome cisplatin resistance in OC cells, the synergy of And-1 inhibitors and cisplatin in IGROV1 CR cells was examined.

IGROV1 CR xenograft = assay type: in vivo, mice
Method: as §1
To assess the efficacy of combination therapy with And-1 inhibitor and cisplatin in vivo, an IGROV1 CR xenograft was treated with vehicle, And-1 inhibitors, cisplatin or combination of cisplatin and And-1 inhibitor via intraperitoneal injection.

And-1 = biological target: T2, And-1 (Homo sapiens, UniProt O75717); test: fluorescent boron sensor DAHMI staining of live IGROV1 cells; assay type: cell-based; set-up: endogenous in cells; host or cells: IGROV1 CR
T2 sequence (O75717 1-1129): T1 sequence (O75717 1-1129)
From the text: Boron-containing compounds can be visualized using a fluorescent boron sensor DAHMI. To determine the binding specificity of CH3 to And-1, the distribution of CH3 in live cells was examined using DAHMI.

SMILES: OB1OCc2cc(/C=C/c3ccc(Cl)c(Cl)c3)ccc21 [CH3]
- interaction between HA-And-1 and FLAG-And-1 (And-1 polymerization): significantly decreased
- And-1 expression in tumor (IHC) (MCF7 xenograft; MCF7 xenograft): inhibited And-1 expression
- apoptosis in tumor (cleaved caspase-3 IHC) (MCF7 xenograft; MCF7 xenograft): induced apoptosis in tumor
- tumor growth (MCF7 xenograft; MCF7 xenograft, 20 or 40 mg/kg intraperitoneally, three weeks): significantly reduced tumor growth
- systemic toxicity (body weight, H&E staining of heart, liver, kidney and lung) (MCF7 xenograft; mouse, in vivo): systemic toxicity or obvious side effects were not observed
- synergy with cisplatin to inhibit cell proliferation (combination index) (IGROV1 CR cells): significant synergy
- And-1 expression in tumor samples (IHC) (IGROV1 CR xenograft; IGROV1 CR xenograft): suppressed expression of And-1
- tumor growth, combination with cisplatin vs cisplatin alone (IGROV1 CR xenograft; IGROV1 CR xenograft, cisplatin 8 mg/kg, CH3 20 mg/kg, BZA 2 mg/kg intraperitoneally, three weeks): excellent synergy in reducing tumor growth
- systemic toxicity of combination with cisplatin (body weight, H&E staining) (IGROV1 CR xenograft; mouse, in vivo): no obvious systemic toxicity or side effect
- distribution of compound in live cells (DAHMI) (And-1): detected in nuclei
